PubChem BioAssay (NCI)
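Compound exposure: 48 hours, 5 concentrations, 96-well plates. GI50 marks 50% less growth. TGI denotes the concentration required for complete inhibition of growth.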

Assays:
Assay in all cases: NCI anticancer screen, dose series, 48 h
[1] = tested on: SF-268 CNS
[2] = tested on: KM12 colon
[3] = tested on: SF-295 CNS
[4] = tested on: HL-60(TB) leukemia
[5] = tested on: CAKI-1 renal
[6] = tested on: SW-620 colon
[7] = tested on: MALME-3M melanoma
[8] = tested on: OVCAR-5 ovarian
[9] = tested on: NCI-H460 lung
[10] = tested on: K-562 leukemia
[11] = tested on: NCI-H23 lung
[12] = tested on: EKVX NSCLC
[13] = tested on: PC-3 prostate
[14] = tested on: SK-MEL-5 melanoma
[15] = tested on: U251 CNS
[16] = tested on: UACC-257 melanoma
[17] = tested on: LOX IMVI melanoma
[18] = tested on: HCC-2998 colon
[19] = tested on: HOP-62 NSCLC
[20] = tested on: ACHN renal
[21] = tested on: A549 NSCLC
[22] = tested on: SNB-19 CNS
[23] = tested on: M14 melanoma
[24] = tested on: HS 578T breast
[25] = tested on: HCT-15 colon
[26] = tested on: A498 renal
[27] = tested on: MDA-MB-231 breast

Q: Which results are given for `CCc1ccc(SC2c3ccc(N(CC)CC)cc3Oc3nc(N)c(C#N)c(N)c32)cc1` (centres undefined)?
A: GI50 [1]: 1.76 µM; TGI [1]: 3.27 µM; GI50 [2]: 1.58 µM; TGI [2]: 3.03 µM; GI50 [3]: 1.76 µM; TGI [3]: 3.2 µM; GI50 [4]: 2.59 µM; TGI [4]: 8.34 µM; GI50 [5]: 1.63 µM; TGI [5]: 3 µM; GI50 [6]: 1.88 µM; TGI [6]: 3.51 µM; GI50 [7]: 1.75 µM; TGI [7]: 3.16 µM; GI50 [8]: 1.8 µM; TGI [8]: 3.24 µM; GI50 [9]: 1.84 µM; TGI [9]: 3.55 µM; GI50 [10]: 3.12 µM; TGI [10]: > 100 µM; GI50 [11]: 1.53 µM; TGI [11]: 3.03 µM; GI50 [12]: 0.71 µM; TGI [12]: 2.07 µM; GI50 [13]: 1.41 µM; TGI [13]: 2.9 µM; GI50 [14]: 1.77 µM; TGI [14]: 3.17 µM; GI50 [15]: 1.44 µM; TGI [15]: 2.82 µM; GI50 [16]: 1.84 µM; TGI [16]: 3.28 µM; GI50 [17]: 0.671 µM; TGI [17]: 1.97 µM; GI50 [18]: 1.86 µM; TGI [18]: 3.39 µM; GI50 [19]: 1.83 µM; TGI [19]: 3.33 µM; GI50 [20]: 1.67 µM; TGI [20]: 3.04 µM; GI50 [21]: 1.81 µM; TGI [21]: 3.32 µM; GI50 [22]: 1.69 µM; TGI [22]: 3.08 µM; GI50 [23]: 1.45 µM; TGI [23]: 2.83 µM; GI50 [24]: 1.76 µM; TGI [24]: 4.85 µM; GI50 [25]: 1.62 µM; TGI [25]: 3.34 µM; GI50 [26]: 1.63 µM; TGI [26]: 3.01 µM; GI50 [27]: 1.63 µM; TGI [27]: 3.04 µM
